From patent publication US9113629B2, “4-amino-6-(4-substituted-phenyl)-picolinates and 6-amino-2-(4-substituted-phenyl)-pyrimidine-4-carboxylates and their use as herbicides” (DOW AGROSCIENCES LLC, priority 2013, dated 2015)
Where two headings read alike, the source gives them in different places.

Columns and labels:
[1] = system: Key Broadleaf Weed and Crop Species; test: Post-emergent Test II herbicidal activity (Table 5); type: in vivo; conditions: post-emergence, 336 h, post-emergent, 14 days after application; for pest or weed control at 66 g/ha: 66 g ai/ha; for pest or weed control at 132 g/ha: 132 g ai/ha
Outline: (§1)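 Compounds, dissolved in 97:3 acetone/DMSO and diluted into an aqueous carrier containing crop oil concentrate and Triton X-155, are applied over the top of young plants at 187 L/ha. Injury is scored visually at 14 d, 0% meaning no effect and 100% complete kill.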

[2] = system: Key Grass and Sedge Weeds as well as Grass Crops; test: Post-emergent Test II herbicidal activity (Table 6); type: in vivo; conditions: post-emergence, 336 h; for pest or weed control at 66 g/ha: application rate 66 g ai/ha; for pest or weed control at 132 g/ha: application rate 132 g ai/ha
Outline: as §1

[3] = ABUTH: velvetleaf (Abutilon theophrasti), read-out: Visual Growth Reduction (%) 14 Days After Application ABUTH
[4] = AMARE: redroot pigweed (Amaranthus retroflexus), read-out: Visual Growth Reduction (%) 14 Days After Application AMARE
[5] = BRSNN: oilseed-rape, canola (Brassica napus), read-out: Visual Growth Reduction (%) 14 Days After Application BRSNN
[6] = CHEAL: lambsquarters (Chenopodium album), read-out: Visual Growth Reduction (%) 14 Days After Application CHEAL
[7] = EPHHL: wild poinsettia (Euphorbia heterophylla), read-out: Visual Growth Reduction (%) 14 Days After Application EPHHL
[8] = HELAN: sunflower (Helianthus annuus), read-out: Visual Growth Reduction (%) 14 Days After Application HELAN
[9] = VIOTR: wild pansy (Viola tricolor), read-out: Visual Growth Reduction (%) 14 Days After Application VIOTR
[10] = Triticum aestivum, TRZSS (wheat), read-out: Visual Growth Reduction (%) 14 Days After Application, TRZSS
[11] = CYPES: yellow nutsedge (Cyperus esculentus), read-out: Visual Growth Reduction (%) 14 Days After Application, CYPES
[12] = DIGSA: crabgrass (Digitaria sanguinalis), read-out: Visual Growth Reduction (%) 14 Days After Application, DIGSA
[13] = ECHCG: barnyardgrass (Echinochloa crus-galli), read-out: Visual Growth Reduction (%) 14 Days After Application, ECHCG
[14] = ORYSA: rice (Oryza sativa), read-out: Visual Growth Reduction (%) 14 Days After Application, ORYSA
[15] = SETFA: giant foxtail (Setaria faberi), read-out: Visual Growth Reduction (%) 14 Days After Application, SETFA
[16] = SORVU: grain sorghum (Sorghum vulgare), read-out: Visual Growth Reduction (%) 14 Days After Application, SORVU
[17] = ZEAMX: maize, corn (Zea mays), read-out: Visual Growth Reduction (%) 14 Days After Application, ZEAMX

Question: Which pest or weed control at 66 g/ha [1, 3] does the source give for `C#Cc1ccc(-c2nc(C(=O)OC)c(Cl)c(N)c2C)cc1` [Compound 40, methyl 4-amino-3-chloro-6-(4-ethynylphenyl)-5-methylpicolinate] here?
Answer: 75 to 84%

Question: And the pest or weed control at 132 g/ha [1, 3]?
Answer: 95 to 100%

Question: What about the pest or weed control at 66 g/ha [1, 4] of the same molecule?
Answer: 0 to 29%

Question: What about the pest or weed control at 132 g/ha [1, 4] of the same molecule?
Answer: 45 to 59%

Question: What about the pest or weed control at 66 g/ha [1, 5] of the same molecule?
Answer: 45 to 59%

Question: And the pest or weed control at 132 g/ha [1, 5]?
Answer: 45 to 59%

Question: What about the pest or weed control at 66 g/ha [1, 6] of the same molecule?
Answer: 45 to 59%

Question: And the pest or weed control at 132 g/ha [1, 6]?
Answer: 60 to 74%

Question: And the pest or weed control at 66 g/ha [1, 7]?
Answer: 0 to 29%

Question: What about the pest or weed control at 132 g/ha [1, 7] of the same molecule?
Answer: 0 to 29%

Question: And the pest or weed control at 66 g/ha [1, 8]?
Answer: 85 to 94%

Question: What about the pest or weed control at 132 g/ha [1, 8] of the same molecule?
Answer: 95 to 100%

Question: And the pest or weed control at 66 g/ha [1, 9]?
Answer: 0 to 29%

Question: And the pest or weed control at 132 g/ha [1, 9]?
Answer: 0 to 29%

Question: And the pest or weed control at 66 g/ha [2, 10]?
Answer: 0 to 29%

Question: What about the pest or weed control at 132 g/ha [2, 10] of the same molecule?
Answer: 0 to 29%

Question: And the pest or weed control at 66 g/ha [2, 11]?
Answer: 0 to 29%

Question: And the pest or weed control at 132 g/ha [2, 11]?
Answer: 0 to 29%

Question: And the pest or weed control at 66 g/ha [2, 12]?
Answer: 0 to 29%

Question: What about the pest or weed control at 132 g/ha [2, 12] of the same molecule?
Answer: 0 to 29%

Question: What about the pest or weed control at 66 g/ha [2, 13] of the same molecule?
Answer: 0 to 29%

Question: What about the pest or weed control at 132 g/ha [2, 13] of the same molecule?
Answer: 0 to 29%

Question: What about the pest or weed control at 66 g/ha [2, 14] of the same molecule?
Answer: 0 to 29%

Question: And the pest or weed control at 132 g/ha [2, 14]?
Answer: 0 to 29%

Question: And the pest or weed control at 66 g/ha [2, 15]?
Answer: 0 to 29%

Question: What about the pest or weed control at 132 g/ha [2, 15] of the same molecule?
Answer: 0 to 29%

Question: What about the pest or weed control at 66 g/ha [2, 16] of the same molecule?
Answer: 0 to 29%

Question: What about the pest or weed control at 132 g/ha [2, 16] of the same molecule?
Answer: 0 to 29%

Question: What about the pest or weed control at 66 g/ha [2, 17] of the same molecule?
Answer: 0 to 29%

Question: And the pest or weed control at 132 g/ha [2, 17]?
Answer: 0 to 29%
